Source: publication PMC7432833, “Unusual Occurrence of Two Bona-Fide CCA-Adding Enzymes in Dictyostelium discoideum” (International Journal of Molecular Sciences, 2020)

Experiments:
CCA2 = target: T1, CCA2 (Dictyostelium discoideum, UniProt Q55BE1); assay: nucleotide binding assay (supplement)
T1 construct: gene DDB_G0271378; full-length codon-optimized ORF, C-terminal His tag, pET28b(+), E. coli BL21(DE3) delta-cca; Q/N-rich
T1 sequence (Q55BE1 1-542): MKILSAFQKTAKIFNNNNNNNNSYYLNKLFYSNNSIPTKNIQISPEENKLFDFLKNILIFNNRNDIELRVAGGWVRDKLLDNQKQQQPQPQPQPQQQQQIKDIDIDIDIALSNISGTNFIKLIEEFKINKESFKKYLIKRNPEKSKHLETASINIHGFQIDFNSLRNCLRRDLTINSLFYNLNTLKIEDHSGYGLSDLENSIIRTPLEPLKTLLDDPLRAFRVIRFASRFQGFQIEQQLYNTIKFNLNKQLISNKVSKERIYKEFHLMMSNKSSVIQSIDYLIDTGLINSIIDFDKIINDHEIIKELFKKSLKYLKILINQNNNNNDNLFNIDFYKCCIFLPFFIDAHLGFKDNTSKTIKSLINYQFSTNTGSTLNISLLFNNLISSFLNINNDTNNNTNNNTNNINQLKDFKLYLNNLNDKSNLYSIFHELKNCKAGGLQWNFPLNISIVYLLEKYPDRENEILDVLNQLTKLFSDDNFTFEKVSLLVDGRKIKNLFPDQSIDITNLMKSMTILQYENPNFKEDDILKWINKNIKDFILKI

CCA1 = target: T2, CCA1 (Dictyostelium discoideum, UniProt Q54BQ2); assay: nucleotide binding assay (supplement)
T2 construct: gene DDB_G0293504; full-length codon-optimized ORF, C-terminal His tag, pET28b(+), E. coli BL21(DE3) delta-cca
T2 sequence (Q54BQ2 1-558): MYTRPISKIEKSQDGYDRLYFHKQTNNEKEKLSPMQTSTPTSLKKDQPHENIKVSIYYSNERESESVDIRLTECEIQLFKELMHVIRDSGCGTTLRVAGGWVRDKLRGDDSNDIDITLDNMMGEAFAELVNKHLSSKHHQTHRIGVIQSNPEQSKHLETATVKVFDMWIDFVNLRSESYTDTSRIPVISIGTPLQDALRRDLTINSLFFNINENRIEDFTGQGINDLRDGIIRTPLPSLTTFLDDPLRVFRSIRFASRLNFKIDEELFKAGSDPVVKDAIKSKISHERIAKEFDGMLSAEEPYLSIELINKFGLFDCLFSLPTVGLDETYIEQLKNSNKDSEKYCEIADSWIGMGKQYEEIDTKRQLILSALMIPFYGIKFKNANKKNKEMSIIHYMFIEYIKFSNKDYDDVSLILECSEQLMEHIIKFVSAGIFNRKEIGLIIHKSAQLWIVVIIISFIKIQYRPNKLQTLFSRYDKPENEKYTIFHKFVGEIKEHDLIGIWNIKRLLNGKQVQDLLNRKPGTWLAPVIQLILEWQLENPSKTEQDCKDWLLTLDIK

[1] = tested on: T3, CCA2 (tRNA nucleotidyltransferase 2, Q/N-rich) (Dictyostelium discoideum); assay: EMSA; details: 6 mM Mg2+, EMSA: HEPES/KOH pH 7.6 (concentration not stated), 30 mM KCl, 6 mM MgCl2, 20 C, 10 min, 0.5 pmol tRNA, 0-5 uM enzyme, 5% native PAA gel, n=3
T3 sequence: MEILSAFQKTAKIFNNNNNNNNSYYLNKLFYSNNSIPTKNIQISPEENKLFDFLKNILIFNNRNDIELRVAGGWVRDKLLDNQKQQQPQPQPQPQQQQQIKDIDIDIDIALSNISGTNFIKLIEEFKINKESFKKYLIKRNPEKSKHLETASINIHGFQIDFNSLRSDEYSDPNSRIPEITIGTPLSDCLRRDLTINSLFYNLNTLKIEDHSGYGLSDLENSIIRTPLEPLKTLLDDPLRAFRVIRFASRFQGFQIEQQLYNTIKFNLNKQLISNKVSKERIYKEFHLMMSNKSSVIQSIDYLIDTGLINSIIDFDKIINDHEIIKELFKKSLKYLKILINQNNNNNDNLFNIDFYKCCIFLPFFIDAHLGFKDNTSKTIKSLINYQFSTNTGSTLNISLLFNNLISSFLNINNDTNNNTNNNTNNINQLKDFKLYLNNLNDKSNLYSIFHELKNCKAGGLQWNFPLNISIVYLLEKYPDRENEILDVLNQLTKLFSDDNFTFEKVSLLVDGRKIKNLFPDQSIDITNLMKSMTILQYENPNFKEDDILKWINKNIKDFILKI

Compound	nucleotide binding assay (supplement) (CCA2)	nucleotide binding assay (supplement) (CCA1)	Kd [1]	Kd ([1]; tRNA pool, native tRNA modifications (isolated from cells))
Nc1ncnc2c1ncn2[C@@H]1O[C@H](COP(=O)(O)OP(=O)(O)OP(=O)(O)O)[C@@H](O)[C@H]1O [ATP]	when incubated with CTP or ATP alone, both enzymes showed an almost identical binding behavior	when incubated with CTP or ATP alone, both enzymes showed an almost identical binding behavior	–	–
Nc1ccn([C@@H]2O[C@H](COP(=O)(O)OP(=O)(O)OP(=O)(O)O)[C@@H](O)[C@H]2O)c(=O)n1 [CTP]	when incubated with CTP or ATP alone, both enzymes showed an almost identical binding behavior	when incubated with CTP or ATP alone, both enzymes showed an almost identical binding behavior	–	–
tRNAPhe-CC in vitro transcript (yeast per Fig. 5 legend)	–	–	2300 nM	–
total in vivo tRNA-CC pool	–	–	–	1700 nM
